Measurements published in PubChem BioAssay (NCI).
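The compound was tested at five concentrations on cells cultured in 96-well plates, with a 48-hour exposure period. GI50: concentration for 50% inhibition of growth. At the TGI there is no net growth.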

Key:
Test in all cases: growth of human tumour cells (NCI), 48 h
NCI-H522 lung = test system: NCI-H522 lung
UACC-62 melanoma = test system: UACC-62 melanoma
HOP-92 NSCLC = test system: HOP-92 NSCLC
EKVX NSCLC = test system: EKVX NSCLC
SN12C renal = test system: SN12C renal
SF-539 CNS = test system: SF-539 CNS
COLO 205 colon = test system: COLO 205 colon
HL-60(TB) leukemia = test system: HL-60(TB) leukemia
SK-MEL-2 melanoma = test system: SK-MEL-2 melanoma
SNB-75 CNS = test system: SNB-75 CNS

| SMILES | TGI (NCI-H522 lung) | TGI (UACC-62 melanoma) | TGI (HOP-92 NSCLC) | TGI (EKVX NSCLC) | TGI (SN12C renal) | TGI (SF-539 CNS) | TGI (COLO 205 colon) | TGI (HL-60(TB) leukemia) | TGI (SK-MEL-2 melanoma) | TGI (SNB-75 CNS) | GI50 (NCI-H522 lung) | GI50 (UACC-62 melanoma) | GI50 (HOP-92 NSCLC) | GI50 (SNB-75 CNS) | GI50 (EKVX NSCLC) | GI50 (SN12C renal) | GI50 (SF-539 CNS) | GI50 (COLO 205 colon) | GI50 (HL-60(TB) leukemia) | GI50 (SK-MEL-2 melanoma) |
| --- | --- | --- | --- | --- | --- | --- | --- | --- | --- | --- | --- | --- | --- | --- | --- | --- | --- | --- | --- | --- |
| CNS(=O)(=O)NNS(=O)(=O)c1ccc(Cl)cc1 | > 100 µM | > 100 µM | > 100 µM | > 100 µM | > 100 µM | > 100 µM | > 100 µM | > 100 µM | > 100 µM | – | – | – | – | – | – | – | – | – | – | – |
| c1ccc(P(=Nc2ccccc2N=P(c2ccccc2)(c2ccccc2)c2ccccc2)(c2ccccc2)c2ccccc2)cc1 | 2.24 µM | 11.7 µM | 0.573 µM | 15 µM | 10.9 µM | 10.4 µM | 3.04 µM | 3.43 µM | – | 2.09 µM | – | – | – | – | – | – | – | – | – | – |
| COC(CN1C=C(Sc2ccccc2)CC1)OC | – | > 100 µM | 86.5 µM | > 100 µM | > 100 µM | 68.3 µM | 47.4 µM | 34 µM | 44.8 µM | 52.7 µM | – | – | – | – | – | – | – | – | – | – |
| COC(=O)CC1NC(=O)C1C1(C)OCCO1 (stereo unspecified) | – | > 100 µM | – | > 100 µM | > 100 µM | > 100 µM | > 100 µM | > 100 µM | > 100 µM | 97.7 µM | – | – | – | – | – | – | – | – | – | – |
| BrCc1ccc(CBr)cc1 | 52.2 µM | 22.3 µM | 53.7 µM | 25.7 µM | 6.27 µM | 11.8 µM | > 100 µM | – | – | > 100 µM | 18.2 µM | 5.13 µM | 18.7 µM | 18.8 µM | 10.5 µM | 2.2 µM | 3.02 µM | 0.146 µM | 7.6 µM | – |
| C[C@@H]1O[C@@H](OC[C@H]2O[C@@H](OCCc3ccc(O)c(O)c3)[C@H](O)[C@@H](O)[C@@H]2OC(=O)/C=C/c2ccc(O)c(O)c2)[C@H](O)[C@H](O)[C@H]1O | > 100 µM | > 100 µM | – | > 100 µM | > 100 µM | > 100 µM | > 100 µM | > 100 µM | > 100 µM | > 100 µM | > 100 µM | > 100 µM | – | > 100 µM | > 100 µM | > 100 µM | > 100 µM | > 100 µM | > 100 µM | > 100 µM |
| COc1ccc(OC)c(C2SCC(=O)N2NC(=O)C(O)c2ccccc2)c1 (stereo unspecified) | > 100 µM | > 100 µM | > 100 µM | > 100 µM | > 100 µM | > 100 µM | > 100 µM | – | > 100 µM | > 100 µM | > 100 µM | > 100 µM | > 100 µM | > 100 µM | > 100 µM | > 100 µM | > 100 µM | > 100 µM | – | > 100 µM |
| CCCCCCN(N)C(=O)CC#N | > 100 µM | > 100 µM | > 100 µM | > 100 µM | > 100 µM | > 100 µM | > 100 µM | – | – | > 100 µM | – | – | – | – | – | – | – | – | – | – |
| Cn1c2ccccc2n2c(=O)c3c(c(C#N)c12)CCCC3 | – | – | – | > 100 µM | > 100 µM | > 100 µM | > 100 µM | > 100 µM | > 100 µM | > 100 µM | – | – | – | – | – | – | – | – | – | – |
| COc1ccc(C=O)c(NC(=O)C(C)C)c1 | 46.3 µM | > 100 µM | 53.5 µM | > 100 µM | 57.6 µM | > 100 µM | 34.1 µM | – | > 100 µM | > 100 µM | – | – | – | – | – | – | – | – | – | – |
| CC1(C)CCC[C@]2(C)[C@@H](C=O)C(C=O)=CC[C@@H]12 | 37.4 µM | 34.7 µM | 53 µM | > 100 µM | 39.9 µM | 53.3 µM | 36.5 µM | 36.5 µM | 39.7 µM | – | – | – | – | – | – | – | – | – | – | – |
| O=C(NC1CCCC1=O)c1ccccc1 (stereo unspecified) | – | > 100 µM | > 100 µM | > 100 µM | > 100 µM | > 100 µM | – | > 100 µM | > 100 µM | > 100 µM | – | – | – | – | – | – | – | – | – | – |
| CC1(C)OC2C(=O)C=C(COCc3ccccc3)C2O1 (stereo unspecified) | 38 µM | 28.6 µM | – | > 100 µM | > 100 µM | 60.3 µM | 41 µM | 77.1 µM | > 100 µM | – | – | – | – | – | – | – | – | – | – | – |
| CN(C)CC1CCCC1=O (stereo unspecified) | – | 11.2 µM | 2.97 µM | 3.59 µM | 2.85 µM | 14.8 µM | 1.84 µM | 0.374 µM | 19.3 µM | 9.6 µM | – | – | – | – | – | – | – | – | – | – |
| C[CH2][Pb]([CH2]C)([CH2]C)[O]C(=O)c1ccc2ccccc2n1 | > 10 µM | > 10 µM | > 10 µM | > 10 µM | > 10 µM | > 10 µM | > 10 µM | > 10 µM | > 10 µM | – | > 10 µM | > 10 µM | > 10 µM | – | > 10 µM | > 10 µM | > 10 µM | > 10 µM | > 10 µM | > 10 µM |
| O=c1[nH]cnc2c(C3NC(CO)C(O)C3O)c[nH]c12 (stereo unspecified) | > 100 µM | > 100 µM | > 100 µM | > 100 µM | > 100 µM | > 100 µM | > 100 µM | – | – | > 100 µM | > 100 µM | > 100 µM | > 100 µM | > 100 µM | > 100 µM | > 100 µM | > 100 µM | > 100 µM | – | – |
| COc1cc(/C=C/[N+](=O)[O-])cc(Br)c1OC | 2.83 µM | 12.2 µM | – | 14.6 µM | 13.1 µM | 6.62 µM | 4.58 µM | > 100 µM | 5.71 µM | 5 µM | 0.816 µM | 3.49 µM | – | 1.85 µM | 3.32 µM | 3.94 µM | 2.49 µM | 2.17 µM | 1.62 µM | 2.67 µM |
| CN(CCCCCl)P(=O)(OCCS(=O)(=O)CC(NC(=O)CCC(N)C(=O)O)C(=O)NC(C(=O)O)c1ccccc1)OCC1OC(n2cc(F)c(=O)[nH]c2=O)CC1O (stereo unspecified) | > 57.4 µM | > 100 µM | – | > 100 µM | 16.9 µM | 7.74 µM | > 100 µM | 31.3 µM | > 100 µM | > 100 µM | 0.266 µM | > 100 µM | – | 14.5 µM | 39.2 µM | 0.41 µM | < 0.0105 µM | 10.1 µM | 4.87 µM | > 49.7 µM |
